According to PMC10296591, “Potent GST Ketosteroid Isomerase Activity Relevant to Ecdysteroidogenesis in the Malaria Vector Anopheles gambiae” (Biomolecules, 2023):

Key:
Format in all cases: biochemical
Nobo [1] = molecular target: T1, Nobo (Anopheles gambiae, UniProt Q8WQJ5); assay: steady-state kinetics of double-bond isomerization by purified enzyme (kcat/Km)
T1 construct: gene GSTe8
T1 sequence (Q8WQJ5 1-217): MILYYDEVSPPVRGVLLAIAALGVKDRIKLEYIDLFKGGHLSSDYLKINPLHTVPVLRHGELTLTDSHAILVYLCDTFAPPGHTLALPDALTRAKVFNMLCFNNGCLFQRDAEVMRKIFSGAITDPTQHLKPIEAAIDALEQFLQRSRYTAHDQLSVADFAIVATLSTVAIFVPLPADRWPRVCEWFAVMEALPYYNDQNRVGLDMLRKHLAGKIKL

Nobo D111N = molecular target: T2, Nobo D111N (Anopheles gambiae, UniProt Q8WQJ5, D111N); assay: spectrophotometric inhibition assay of purified mutant enzyme with DCNB and glutathione
T2 construct: gene GSTe8; N-terminal hexahistidine tag

Nobo [2] = molecular target: T1, Nobo; assay: spectrophotometric inhibition assay of purified enzyme with DCNB and glutathione
Nobo [3] = molecular target: T1, Nobo; assay: spectrophotometric specific activity of purified enzyme

Compound	specific activity (Nobo [3]) [μmol/min per mg]	other results
C[C@]12CCC(=O)CC1=CC[C@@H]1[C@@H]2CC[C@]2(C)C(=O)CC[C@@H]12 [5-AD, 5-androsten-3,17-dione]	–	steady-state kinetics of double-bond isomerization by purified enzyme (kcat/Km) (Nobo [1]): (6.9 ± 0.3) × 10^6 M^−1s^−1
C[C@]12CC[C@@H]3c4ccc(O)cc4CC[C@H]3[C@@H]1CC[C@@H]2O [17β-estradiol]	–	IC50 (Nobo D111N): 15.5 ± 6 µM; IC50 (Nobo [2]): 0.17 ± 0.03 µM
C=CCN=C=S [AITC, allyl isothiocyanate]	3.3 ± 0.4	–
O=[N+]([O-])c1ccc(Cl)c([N+](=O)[O-])c1 [CDNB, 1-chloro-2,4-dinitribenzene]	24.7 ± 3.4	–
CC(C)(OO)c1ccccc1 [CuOOH, cumene hydroperoxide]	5.0 ± 0.5	–
O=[N+]([O-])c1ccc(Cl)c(Cl)c1 [DCNB, 1,2-dichloro-4-nitrobenzene]	16.4 ± 1.9	–
S=C=NCCc1ccccc1 [PEITC, phenethyl isothiocyanate]	0.4 ± 0.1	–
